Here are results for one compound from PMC11373624, “Development and preclinical characterization of a novel radiotheranostic EphA2-targeting bicyclic peptide” (Theranostics, 2024).

Structures are written as SMILES. Numbered stars: 1 amine (or outer) side, 2 acyl side, 3 side chain; on linkers, the order of the positions; unused ones are H or OH. Bridge positions count the residues as written; N and C are the ends. Square brackets hold non-standard residues; d marks the D form. Peptide text beside a SMILES is read from it. * marks the point of attachment. DOTA = O=C(O)CN1CCN(CC(=O)O)CCN(CC(=O)*)CCN(CC(=O)O)CC1; TATA = O=C(CC[*:1])N1CN(C(=O)CC[*:2])CN(C(=O)CC[*:3])C1; d(hArg) = N=C(N)NCCCC[C@@H](N)C(=O)O; dHyp = O=C(O)[C@H]1C[C@H](O)CN1; dCba = N[C@H](CC1CCC1)C(=O)O; βAla = NCCC(=O)O; Sar = CNCC(=O)O A value given as a limit tells only on which side of the number the result lay.

For this experiment, the target named is T1, Human EphA2 (Homo sapiens, UniProt P29317).
T1 construct: Human EphA2 (residues 27-529) was cloned into pEXPR-IBA44; made in house; host or cells: HEK293 f/s cells
T1 sequence (P29317 27-529): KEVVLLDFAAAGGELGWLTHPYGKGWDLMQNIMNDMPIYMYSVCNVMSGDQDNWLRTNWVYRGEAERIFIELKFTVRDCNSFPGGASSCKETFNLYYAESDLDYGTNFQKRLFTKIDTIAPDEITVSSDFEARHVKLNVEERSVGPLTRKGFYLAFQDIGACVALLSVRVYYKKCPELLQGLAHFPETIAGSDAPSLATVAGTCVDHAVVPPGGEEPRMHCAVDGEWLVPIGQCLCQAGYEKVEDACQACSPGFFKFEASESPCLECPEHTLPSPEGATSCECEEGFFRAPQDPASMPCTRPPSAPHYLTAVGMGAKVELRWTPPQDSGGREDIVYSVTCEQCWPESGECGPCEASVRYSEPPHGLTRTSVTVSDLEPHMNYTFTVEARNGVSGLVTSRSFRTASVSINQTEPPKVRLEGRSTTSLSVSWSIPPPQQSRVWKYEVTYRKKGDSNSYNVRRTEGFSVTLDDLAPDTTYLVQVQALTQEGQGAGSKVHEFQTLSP
The experiment is described as follows: SPR binding to human EphA2. The method, then:
Human EphA2 (residues 27-529) was cloned into pEXPR-IBA44 between the 5' NheI and 3' BsaI sites to make constructs expressing a BM40 signal sequence and C-terminal 6xHIS tag. For the expression and purification of the protein, HEK293 f/s cells at 1 x 10^6/mL in freestyle media (Thermo Fisher) were transfected with 1 µg DNA per million cells by PEI either 2:1 or 3:1 PEI:DNA ratio. On day 2 valproic acid was added to a 2.2 mM concentration. The supernatant was harvested 5 days post transfection and loaded on a 1 ml Ni-NTA agarose resin (Thermo Fisher) (wash buffer: 20 mM HEPES pH 7.6, 0.5 M NaCl, 5 mM imidazole, 0.01% Tween-20 buffer; elution buffer: 20 mM HEPES pH 7.6, 0.5 M NaCl, 300 mM imidazole, 0.01% Tween-20). The protein was concentrated to a volume of 2 mL, loaded onto an S-200 Superdex column (GE Healthcare) and eluted with 20 mM HEPES pH 7.6, 150 mM NaCl, 0.01% Tween-20 at a flow rate of 1 mL/min. Fractions were collected and those containing human EphA2 protein were concentrated for further use.
SPR experiments were performed on a Biacore 8K+ (Cytiva Life Sciences, USA) instrument, with methods matched for both human and mouse EphA2 protein. Protein was captured on to a Cytiva NTA sensor chip (Cytiva Life Sciences), via the expressed His-tag; this was followed by primary amine coupling chemistry to covalently immobilize the protein to the chip at 25°C. Initially the surface was injected with 0.5 mM NiCl2 for 2 minutes, followed by activation of the carboxymethyl dextran surface for 7 minutes using an injection of a 1:1 ratio of 0.4 M 1-ethyl-3-(3-dimethylaminopropyl) carbodiimide hydrochloride (EDC)/0.1 M N-hydroxy succinimide (NHS) at a flow rate of 10 µL/min.
Human EphA2 protein was captured to the Ni-NTA surface to a level of 200-300 RU and Mouse EphA2 to 500-800 RU; the residual activated groups were then blocked with a 7 minute injection of 1 M ethanolamine (pH 8.5):HBS-N (1:1). Finally, the Ni-NTA surface was chelated with a 1-minute injection of 350 mM EDTA.
Peptide was prepared in PBS/0.05% Tween 20 with a final DMSO concentration of 0.5%. The top peptide concentration was 100 or 500 nM and 5 further 3-fold dilutions. The peptide was titrated over the chip using single cycle kinetics at 25°C at a flow rate of 75 µL/min with 60 second association and 4000 second dissociation. All data were double referenced for blank injections and reference surface using standard processing procedures. Data was characterized with a 1:1 kinetic binding model to determine kinetic rate constants ka (M^-1s^-1) and kd (s^-1) and equilibrium dissociation constant KD (nM). All data processing was performed using Cytiva Insight Evaluation (Cytiva Life Sciences, USA).

For the compound `CC(C)C[C@H]1NC(=O)[C@H]2CCCN2C(=O)[C@@H](CC(N)=O)NC(=O)[C@@H](C(C)C)NC(=O)[C@@H](CC2CCC2)NC(=O)[C@H]2C[C@H](O)CN2C(=O)[C@H](NC(=O)[C@@H](CC(=O)O)NC(=O)[C@@H](CCCCNC(=N)N)NC(=O)[C@@H](C)NC(=O)CN(C)C(=O)CN(C)C(=O)CN(C)C(=O)CN(C)C(=O)CN(C)C(=O)CN(C)C(=O)CN(C)C(=O)CN(C)C(=O)CN(C)C(=O)CN(C)C(=O)CCNC(=O)CN2CCN(CC(=O)O)CCN(CC(=O)O)CCN(CC(=O)O)CC2)CSCCC(=O)N2CN3CN(C2)C(=O)CCSC[C@@H](NC1=O)C(=O)N[C@H](CC(C)C)C(=O)N[C@H](Cc1c[nH]cn1)C(=O)N1CCC[C@@H]1C(=O)N[C@@H](CC(=O)O)C(=O)N[C@H](Cc1c[nH]c2ccccc12)C(=O)N[C@H](CCCCNC(=N)N)C(=O)N[C@@H](C(N)=O)CSCCC3=O` [BCY26443, [DOTA]-[B-Ala]-[Sar10]-[dAla]-[dHArg]-[dAsp]-[dCys]-[dHyP]-[dCba]-[dVal]-[dAsn]-[dPro]-[dLeu]-[dCys]-[dLeu]-[dHis]-[dPro]-Asp-[dTrp]-[dHArg]-[dCys]-CONH2] ({DOTA-βAla}-[Sar][Sar][Sar][Sar][Sar][Sar][Sar][Sar][Sar][Sar][dA][d(hArg)][dD][dC][dHyp][dCba][dV][dN][dP][dL][dC][dL][dH][dP]D[dW][d(hArg)][dC]-NH2; linker 14-21-28 via TATA), the Kd (human EphA2, read-out: no binding up to (peptide concentration)) is more than 5 µM. Where the note is “in words”, the “binding to human EphA2 by SPR” value is “no binding”.
